Experimental findings from ChEMBL document CHEMBL1782041, “Novel non-peptide beta-secretase inhibitors derived from structure-based virtual screening and bioassay” (Bioorg Med Chem Lett, 2009) are described below.

Molecules are shown by their SMILES. Peptide text beside a SMILES is read from it.

Experiment [1] addresses T1, Beta-secretase 1 (Homo sapiens, UniProt P56817). Kind of experiment: Inhibition of BACE1 using peptide substrate Rh-EVNLDAEFKQuencher by fluorescence resonance energy transfer (FRET) assay.
Experiment [2] has as its target T1, Beta-secretase 1. Put plainly: Inhibition of BACE1 using peptide substrate Rh-EVNLDAEFKQuencher at 100 uM by fluorescence resonance energy transfer (FRET) assay.

T1 sequence (P56817 whole entry): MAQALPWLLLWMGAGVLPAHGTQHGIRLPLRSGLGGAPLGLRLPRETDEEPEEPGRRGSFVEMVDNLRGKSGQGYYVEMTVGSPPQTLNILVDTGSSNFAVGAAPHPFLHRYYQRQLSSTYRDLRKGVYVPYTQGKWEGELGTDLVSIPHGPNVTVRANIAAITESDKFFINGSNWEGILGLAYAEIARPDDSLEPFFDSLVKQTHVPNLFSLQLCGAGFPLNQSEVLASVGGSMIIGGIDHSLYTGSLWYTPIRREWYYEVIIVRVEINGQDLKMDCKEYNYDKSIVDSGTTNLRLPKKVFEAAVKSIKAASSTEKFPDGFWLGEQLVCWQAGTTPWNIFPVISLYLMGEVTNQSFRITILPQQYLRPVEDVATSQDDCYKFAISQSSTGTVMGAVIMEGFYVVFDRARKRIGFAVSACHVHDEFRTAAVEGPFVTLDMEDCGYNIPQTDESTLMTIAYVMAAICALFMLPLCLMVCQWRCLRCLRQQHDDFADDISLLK

As for `O=C(Nc1ncc(Cc2cccc(Cl)c2Cl)s1)c1ccc(CSc2nnc(-c3ccncc3)n2-c2ccccc2)cc1`, at Beta-secretase 1 [1], the IC50 (commonly the concentration that inhibits the measured activity by half) is greater than 100 µM. Besides, the inhibition – broadly, how much of the control response was suppressed – against Beta-secretase 1 [2] came out at 78%.

At Beta-secretase 1 [1], `Cc1nc(NC(=NC(=O)Nc2ccccc2)NC(=O)Nc2ccccc2)nc2ccccc12` came in with an IC50 of 3 µM.

In the case of `Cc1ccc(NC(=O)Cc2nnc(SCC(=O)Nc3nc(-c4ccccc4)cs3)n2C)cc1`, the half-maximal inhibitory concentration (IC50) against Beta-secretase 1 [1] came to 21 µM. Further, on Beta-secretase 1 [2], the inhibition was determined as 83%.

`O=C(CSc1nnc(Cc2c[nH]c3ccccc23)n1Cc1ccccc1)c1c[nH]c2ccccc12` displayed an IC50 on Beta-secretase 1 [1] of 100 µM. Further, the inhibition against Beta-secretase 1 [2] was found to be 75%.

For the compound `Cc1nc(N/C(=N\C(=O)Nc2ccccc2)NC(=O)Nc2ccccc2)nc2ccccc12`, the inhibition on Beta-secretase 1 [2] amounted to 100%.

Turning to `Cc1nn(-c2ccccc2)c(Cl)c1C1Nc2ccccc2-c2nnc(SCc3ccccc3)nc2O1` (configuration not stated), at Beta-secretase 1 [1], the IC50 is 100 µM. On Beta-secretase 1 [2], this compound displayed an inhibition of 48%.

In the case of `CCc1nnc(NC(=O)CSc2nc(-c3ccc(F)cc3)cc(-c3ccccc3)c2C#N)s1`, at Beta-secretase 1 [1], the IC50 is 50 µM. Also, the inhibition at Beta-secretase 1 [2] is 80%.

Turning to `O=C(CSc1nc2ccc(Nc3nc(N4CCCCC4)nc(N4CCCCC4)n3)cc2s1)Nc1ccccc1F`, half-maximal inhibition against Beta-secretase 1 [1] (IC50) was put at 10.2 µM. Further, the inhibition against Beta-secretase 1 [2] was determined as 90%.

`COc1ccc(CCNC(=O)CSc2nc3ccc(Nc4nc(N5CCCCC5)nc(N5CCCCC5)n4)cc3s2)cc1OC`: on Beta-secretase 1 [1], the IC50 worked out at 2.8 µM. The compound also registered an inhibition at Beta-secretase 1 [2] of 80%.

The compound `N#Cc1c(-c2ccccc2)cc(-c2ccccc2)nc1SCC(=O)Nc1cccc([N+](=O)[O-])c1` gave an IC50 on Beta-secretase 1 [1] of 20 µM. Besides, on Beta-secretase 1 [2], the inhibition was found to be 100%.

As for `N#Cc1c(NC(=O)C(F)(F)C(F)(F)C(F)(F)C(F)(F)C(=O)Nc2sc3c(c2C#N)CCCCCC3)sc2c1CCCCCC2`, it took 12.2 µM to reach half-maximal inhibition against Beta-secretase 1 [1] (IC50). The inhibition against Beta-secretase 1 [2] turned out to be 87%.

Take `N#Cc1c(NC(=O)COC(=O)CSc2nc(-c3ccccc3)cc(-c3ccccc3)n2)sc2c1CCCC2`: on Beta-secretase 1 [1], the half-inhibitory concentration (IC50) turned out to be 34.5 µM. Further, the inhibition against Beta-secretase 1 [2] turned out to be 75%.

Compound `N#Cc1c(-c2ccc(F)cc2)cc(-c2ccccc2)nc1SCC(=O)NC12CC3CC(CC(C3)C1)C2` registered an IC50 on Beta-secretase 1 [1] of 118 µM. Further, on Beta-secretase 1 [2], the inhibition is 45%.

`O=S(=O)(c1ccc(Br)cc1)N(c1cnn(Cc2ccc(Cl)c(Cl)c2)c1)S(=O)(=O)c1ccc(Br)cc1` showed a half-inhibitory concentration (IC50) at Beta-secretase 1 [1] of 90 µM. This compound also showed an inhibition against Beta-secretase 1 [2] of 50%.

Take `CC[C@H](C)[C@H](NC(=O)[C@H](CCC(=O)O)NC(=O)[C@H](CCC(=O)O)NC(=O)[C@@H](NC(=O)[C@@H](N)CCCCN)[C@@H](C)O)C(=O)N[C@@H](CO)C(=O)N[C@@H](CCC(=O)O)C(=O)N[C@H](C(=O)N[C@@H](CC(N)=O)C(=O)N[C@@H](CC(C)C)[C@@H](O)CC(=O)N[C@H](C(=O)N[C@@H](C)C(=O)N[C@@H](CCC(=O)O)C(=O)N[C@@H](Cc1ccccc1)C(=O)O)C(C)C)C(C)C` (HELM PEPTIDE1{K.T.E.E.I.S.E.V.N.[CC(C)C[C@H](N[*:1])[C@@H](O)CC(=O)[*:2]].V.A.E.F}$$$$V2.0): on Beta-secretase 1 [1], the 50% inhibitory concentration (IC50) stood at 0.12 µM. At Beta-secretase 1 [2], this compound showed an inhibition of 100%.

In the case of `Cc1cc(C)nc(N/C(=N\C(=O)N2c3ccccc3Sc3ccccc32)Nc2cccc([N+](=O)[O-])c2)n1`, the IC50 on Beta-secretase 1 [1] is 28.6 µM. On Beta-secretase 1 [2], this compound had an inhibition of 80%.

Compound `COc1ccc(-c2cc(-c3ccc(Cl)cc3)c(C#N)c(SCC(=O)N(c3ccccc3)c3ccc4ccccc4c3)n2)cc1` came in with an IC50 against Beta-secretase 1 [1] of 50 µM. The compound further registered an inhibition on Beta-secretase 1 [2] of 68%.
